# In PMC10799042 (Scientific Reports, 2024):
# How the values were obtained:
# [1] = test system: scopolamine-induced memory impairment and learning disability in mice; assay: Morris water maze, scopolamine-induced memory impairment; type: in vivo, Swiss albino male mice; conditions: for escape latency versus scopolamine-treated mice (in words): day 1 to 5; for Escape latency, 1st Day: day 1; for Escape latency, 2nd Day: day 2; for Escape latency, 3rd Day: day 3; for Escape latency, 4th Day: day 4; for Escape latency, 5th Day: day 5
# Experimental: Swiss albino male mice weighing 25–30 g were purchased from LLRUVAS in Hisar, Haryana, India. […] The housing, care, and handling of the animals were done per CPCSEA requirements. The animals were exposed to the laboratory setting for seven days before the experiment.
# (§1) The animals were properly acclimated before being randomly placed into 12 groups (I-XII), with six animals in each group. […] Following the delivery of the dose to the mouse, the rodent's behaviour was assessed using the traditional Morris water maze (MWM) technique.
# Five days of continuous animal evaluations were conducted using the MWM model. […] The tank was placed in a dim laboratory, and using wires anchored at the pool's edge at an angle to one another, it was divided into four equal pieces (P1–P4). A stage in the targeted area (P4) of the pool with an upper face (6 × 6 cm^2) immersed in the water (1.0 cm below the surface). The location of the stage stayed the same throughout the evaluation. The animals were subjected to water pools throughout the evaluation by turning their heads towards the wall from any of the four segments, namely P1-P4, and being given 90 s to recognise the stage placed in a pool. If the animal couldn't get to the stage in 90 s, they were gently guided onto the stage under supervision. On the sixth day, one of the parameters used to determine if cognitive impairments have recovered was the time it took the mice to travel from the initial portion to locate the hidden stage in the intended part (escape latency). […]
# [2] = target: T1, Acetylcholinesterase (AChE) (Mus musculus, UniProt P21836); conditions: brain THS of mice, scopolamine 1.5 mg/kg i.p.; donepezil and compounds 2 mg/kg p.o.; mean ± SD
# T1 sequence (P21836 32-614): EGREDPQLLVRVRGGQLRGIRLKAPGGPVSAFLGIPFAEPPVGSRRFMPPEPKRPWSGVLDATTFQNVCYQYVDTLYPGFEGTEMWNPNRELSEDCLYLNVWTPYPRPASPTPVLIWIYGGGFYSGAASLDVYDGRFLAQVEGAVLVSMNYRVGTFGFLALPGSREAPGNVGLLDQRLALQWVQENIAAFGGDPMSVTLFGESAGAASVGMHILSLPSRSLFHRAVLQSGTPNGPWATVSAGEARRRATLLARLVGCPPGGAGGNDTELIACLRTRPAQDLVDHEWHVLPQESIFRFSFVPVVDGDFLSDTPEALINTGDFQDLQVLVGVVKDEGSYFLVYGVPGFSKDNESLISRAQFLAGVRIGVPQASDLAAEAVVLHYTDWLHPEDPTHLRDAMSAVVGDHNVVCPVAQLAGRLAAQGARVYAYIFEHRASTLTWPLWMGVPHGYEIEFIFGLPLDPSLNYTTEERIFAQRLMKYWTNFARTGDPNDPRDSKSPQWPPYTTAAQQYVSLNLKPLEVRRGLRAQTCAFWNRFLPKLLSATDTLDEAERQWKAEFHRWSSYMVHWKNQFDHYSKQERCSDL
# Experimental: as §1
# (§2) After five days of behavioral assessment, the mice's brains were removed and homogenized (blended) in chilled phosphate buffer (pH 7.4) at a concentration of 10% w/v (weight per volume). The homogenates were then centrifuged (spun at high speed) for 20 min at 4 °C to separate the supernatant (liquid) from the pellet (solid material). The supernatant was then collected to measure biological substances.
# Employing Ellman et al., methodology, AChE levels were quantified in tissue homogenate supernatant (THS) to evaluate cholinergic abnormalities.
# malondialdehyde (MDA) = assay: Lipid peroxidation (LPO) assay, MDA in brain homogenate; type: in vivo; conditions: brain THS of mice, scopolamine 1.5 mg/kg i.p.; donepezil and compounds 2 mg/kg p.o.; mean ± SD
# Experimental: as §1, §2
# The amount of malondialdehyde (MDA), a marker of lipid peroxidation (LPO), was measured using a method described by Wills[10]. Tris–HCl buffer and THS were mixed and incubated at 37 °C for 2 h with 10% trichloroacetic acid. After incubation, the mixture was centrifuged again (at 1000 rpm for 10 min). […] After cooling, 1.0 mL of double-distilled water was added, and the absorbance was measured at 532 nm.
# nitrite = assay: Nitrite assay (Greiss reagent) in brain homogenate; type: in vivo; conditions: brain THS of mice, scopolamine 1.5 mg/kg i.p.; donepezil and compounds 2 mg/kg p.o.; mean ± SD
# Experimental: as §1, §2
# The amount of nitric oxide in THS was calculated using Greiss' reagent, a mixture of chemicals that reacts with nitric oxide to produce a colored product. The absorbance of the colored product was computed at 540 nm and the concentration of nitrite was determined using a standard curve of known nitrite concentrations.
# [3] = test system: Reduced glutathione (GSH); assay: Reduced glutathione (GSH) assay in brain homogenate; type: in vivo; conditions: brain THS of mice, scopolamine 1.5 mg/kg i.p.; donepezil and compounds 2 mg/kg p.o.; mean ± SD
# Experimental: as §1, §2
# The method described by Jollow et al. was used to measure glutathione (GSH) levels. First, 1.0 mL of 4% sulfosalicylic acid was added to 1.0 mL of tissue homogenate to precipitate the GSH. The mixture was then incubated at 4 °C for 1 h and centrifuged at 1200 rpm for 10 min at 4 °C. The supernatant was collected and diluted to a final volume of 3.0 mL with phosphate buffer and Ellman's reagent. […]
# [4] = test system: Superoxide dismutase (SOD); assay: Superoxide dismutase (SOD) assay in brain homogenate; type: in vivo; conditions: brain THS of mice, scopolamine 1.5 mg/kg i.p.; donepezil and compounds 2 mg/kg p.o.; mean ± SD
# Experimental: as §1, §2
# The samples contained EDTA, sodium carbonate, and NBT, and the assay was performed using Kono's method. Each sample tube contained 2.0 mL of this mixture, as well as THS and hydroxylamine. The absorbance of the mixture was measured at 560 nm every 30 or 60 s for 2 min to track changes in absorbance.
# Catalase = Catalase assay in brain homogenate; type: in vivo; conditions: brain THS of mice, scopolamine 1.5 mg/kg i.p.; donepezil and compounds 2 mg/kg p.o.; mean ± SD
# Experimental: as §1, §2
# Employing the methodology of Luck et al., catalase activity was quantified. The sample contained H2O2 (1.0 mL, 0.019 M), phosphate buffer (1.95 mL, 0.05 M, pH 7.0), and THS (0.05 mL). The optical density was computed at a wavelength of 240 nm. The findings were shown as μM H2O2 decomposition/min/mg protein[13].
# [5] = mice, scopolamine 1.5 mg/kg i.p., donepezil and compounds 2 mg/kg p.o. with scopolamine, mean ± SD
Compound,escape latency versus scopolamine-treated mice (in words) ([1]; 2 mg/kg),"Escape latency, 1st Day [1, 5] [s]","Escape latency, 2nd Day [1, 5] [s]","Escape latency, 3rd Day [1, 5] [s]","Escape latency, 4th Day [1, 5] [s]","Escape latency, 5th Day [1, 5] [s]",μM of AChE/min/mg protein [2],"LPO assay, MDA levels (malondialdehyde (MDA))","Nitrite assay, nitrite conc. (nitrite) [μM/mg protein]","GSH assay, μmol of GSH/mg Protein [3]","SOD assay, SOD units/mg protein [4] [SOD units/mg protein]","Catalase assay, Catalase activity (Catalase) [min⁻¹]","improvement of cognitive defects (in words) ([1]; 2 mg/kg, compared with donepezil 2 mg/kg)","TSTQ (time spent in the target quadrant) ([1]; mice, scopolamine 1.5 mg/kg i.p., donepezil and compounds 2 mg/kg p.o. with scopolamine, probe trial, mean ± SD) [s]"
"2-(1-benzylpiperidin-4-yl)-4-chloro-6,7-dimethoxyquinoline [Compound 15]",significantly reduced escape latency,80.5 ± 0.86,49.83 ± 0.75,29.16 ± 3.07,11.5 ± 1.04,3.83 ± 1.34,0.02 ± 0.02 μM of AChE/min/mg protein,8.54 ± 0.02 nM/mg of tissue,14.66 ± 0.04,0.09 ± 0.003 μmol of GSH/mg Protein,3.14 ± 0.03,5.35 ± 0.03,–,–
"2-(1-benzylpiperidin-4-yl)-6,7-dimethoxy-4-(4-(trifluoromethyl)phenyl)quinoline [Compound 19]",significantly reduced escape latency,54.83 ± 1.47,44.83 ± 2.71,21.33 ± 2.68,13.16 ± 2.31,3.66 ± 0.94,0.01 ± 0.02 μM of AChE/min/mg protein,9.25 ± 0.02 nM/mg of tissue,11.31 ± 0.03,0.09 ± 0.005 μmol of GSH/mg Protein,3.09 ± 0.03,5.17 ± 0.05,–,–
"2-(1-benzylpiperidin-4-yl)-6,7-dimethoxy-4-(4-methoxyphenyl)quinoline [Compound 18]",significantly reduced escape latency,–,44.83 ± 3.125,24.66 ± 1.24,13.83 ± 2.63,3.33 ± 1.37,0.01 ± 0.01 μM of AChE/min/mg protein,8.52 ± 0.02 nM/mg of tissue,10.51 ± 0.03,0.11 ± 0.001 μmol of GSH/mg Protein,4.08 ± 0.02,5.53 ± 0.01,most potent,–
"2-(2-(1-benzylpiperidin-4-yl)ethyl)-4-chloro-6,7-dimethoxyquinoline [Compound 17]",significantly reduced escape latency,81 ± 0.89,32.83 ± 1.83,22.66 ± 1.79,12.33 ± 2.25,4.16 ± 0.74,0.02 ± 0.01 μM of AChE/min/mg protein,8.73 ± 0.05 nM/mg of tissue,12.57 ± 0.05,0.11 ± 0.006 μmol of GSH/mg Protein,3.09 ± 0.02,4.76 ± 0.02,–,–
"2-((1-benzylpiperidin-4-yl)methyl)-4-chloro-6,7-dimethoxyquinoline [Compound 16]",significantly reduced escape latency,76 ± 3.3,30.8 ± 0.75,21 ± 0.81,16 ± 1.54,5.33 ± 1.24,0.01 ± 0.01 μM of AChE/min/mg protein,8.52 ± 0.05 nM/mg of tissue,11.74 ± 0.03,0.11 ± 0.002 μmol of GSH/mg Protein,3.07 ± 0.02,4.66 ± 0.04,–,–
"CN1[C@@H]2C[C@@H](OC(=O)[C@H](CO)c3ccccc3)C[C@H]1[C@@H]1O[C@@H]12 [Scopolamine, scopolamine, reference compound]",–,78.65 ± 0.82,80.64 ± 3.91,82.82 ± 3.79,84.15 ± 3.31,86.25 ± 3.31,–,–,–,–,–,–,–,18.55 ± 0.88
N-(1-benzylpiperidin-4-yl)-2-(2-oxoindolin-3-yl)acetamide [Compound 23],significantly reduced escape latency,55.33 ± 1.96,45.16 ± 0.75,35.33 ± 2.56,11.83 ± 1.94,4.16 ± 1.067,0.01 ± 0.04 μM of AChE/min/mg protein,–,–,–,–,–,–,–
